Assay results published in ChEMBL document CHEMBL5620353, “Novel antifungal triazoles with alkynyl-methoxyl side chains: Design, synthesis, and biological activity evaluation” (Eur J Med Chem, 2023).
In brackets after ≈: the same amount, converted by molar mass.

Tests used:
[1] = test system: Candida albicans; assay: Antifungal activity against Candida albicans 10231 assessed as inhibition of fungal growth incubated for 48 hrs by microbroth dilution method; type: functional
[2] = test system: Pichia kudriavzevii; assay: Antifungal activity against Candida krusei 4996 assessed as inhibition of fungal growth incubated for 48 hrs by microbroth dilution method; type: functional
[3] = test system: Candida tropicalis; assay: Antifungal activity against Candida tropicalis 8915 assessed as inhibition of fungal growth incubated for 48 hrs by microbroth dilution method; type: functional
[4] = test system: Cryptococcus neoformans; assay: Antifungal activity against Cryptococcus neoformans 32,609 assessed as inhibition of fungal growth incubated for 72 hrs by microbroth dilution method; type: functional
[5] = test system: Aspergillus fumigatus; assay: Antifungal activity against Aspergillus fumigatus 7544 assessed as inhibition of fungal growth incubated for 72 hrs by microbroth dilution method; type: functional
[6] = test system: Candida albicans; assay: Antifungal activity against fluconazole-resistant Candida albicans 901 assessed as inhibition of fungal growth incubated for 48 hrs by microbroth dilution method; type: functional
[7] = test system: Candida albicans; assay: Antifungal activity against fluconazole-resistant Candida albicans 904 assessed as inhibition of fungal growth incubated for 48 hrs by microbroth dilution method; type: functional
[8] = test system: [Candida] auris; assay: Antifungal activity against fluconazole-resistant Candida auris 891 assessed as inhibition of fungal growth incubated for 48 hrs by microbroth dilution method; type: functional; conditions: Candidozyma auris
[9] = test system: [Candida] auris; assay: Antifungal activity against fluconazole-resistant Candida auris 919 assessed as inhibition of fungal growth incubated for 48 hrs by microbroth dilution method; type: functional; conditions: Candidozyma auris
[10] = test system: Candida albicans; assay: Antifungal activity against Candida albicans SC5314 assessed as reduction in fungal growth measured after 6 to 24 hrs by optical density based method; type: functional, organism-based; conditions: dose 0.0625-16 µg/ml, time 6-24 hrs
[11] = test system: Candida albicans; assay: Antifungal activity against Candida albicans SC5314 assessed as inhibition of fungal growth at 0.0625 ug/ml measured after 12 hrs by optical density based method; type: functional
[12] = test system: Candida albicans; assay: Inhibition of biofilm formation in Candida albicans SC5314 at 64 ug/ml incubated for 24 hrs by XTT reduction assay relative to control; type: functional
[13] = test system: Candida albicans; assay: Antibiofilm activity against Candida albicans SC5314 preformed biofilms at 64 ug/ml incubated for 24 hrs by XTT reduction assay relative to control; type: functional; design: scale not given: the % may be the effect or the level left; conditions: dose 64 µg/ml
[14] = test system: Candida albicans; assay: Antibiofilm activity against Candida albicans SC5314 preformed biofilms incubated for 24 hrs by XTT reduction assay; type: functional, organism-based; conditions: dose 0.25-64 µg/ml
[15] = Cytotoxicity against HUVEC cells assessed as cell survival at <16 ug/ml incubated for 24 hrs by CCK-8 assay relative to control; type: toxicity, cell-based; conditions: human, dose < 16 µg/ml, read-out: Survival
[16] = Cytotoxicity against HUVEC cells assessed as cell survival at 128 ug/ml incubated for 24 hrs by CCK-8 assay relative to control; type: toxicity, cell-based; conditions: human, at 128 µg/mL, read-out: Survival
[17] = Cytotoxicity against HUVEC cells assessed as reduction in cell survival incubated for 24 hrs by CCK-8 assay; type: toxicity, cell-based; conditions: human
[18] = Selectivity index, ratio of IC50 for HUVEC cells to MIC for Candida albicans SC5314; type: toxicity; conditions: human, HUVEC cells versus Candida albicans SC5314; read-out: Selectivity Index
[19] = Selectivity index, ratio of IC50 for HUVEC cells to MIC for Candida glabrata 537; type: toxicity; conditions: human, HUVEC cells versus Candida glabrata 537; read-out: Selectivity Index
[20] = Hemolytic activity in rabbit RBC at 64 ug/ml incubated for 1 hr by absorbance based analysis; type: toxicity, cell-based, Oryctolagus cuniculus, Erythrocyte; conditions: rabbit red blood cells, at 64 µg/mL, read-out: Activity
[21] = biological target: T1, Cytochrome P450 1A2 (Homo sapiens, UniProt P05177); assay: Inhibition of human CYP1A2 using phenacetin as substrate prewarmed for 10 mins followed by NADPH addition and measured after 10 mins by LC-MS/MS analysis; type: ADME
T1 sequence (P05177 whole entry): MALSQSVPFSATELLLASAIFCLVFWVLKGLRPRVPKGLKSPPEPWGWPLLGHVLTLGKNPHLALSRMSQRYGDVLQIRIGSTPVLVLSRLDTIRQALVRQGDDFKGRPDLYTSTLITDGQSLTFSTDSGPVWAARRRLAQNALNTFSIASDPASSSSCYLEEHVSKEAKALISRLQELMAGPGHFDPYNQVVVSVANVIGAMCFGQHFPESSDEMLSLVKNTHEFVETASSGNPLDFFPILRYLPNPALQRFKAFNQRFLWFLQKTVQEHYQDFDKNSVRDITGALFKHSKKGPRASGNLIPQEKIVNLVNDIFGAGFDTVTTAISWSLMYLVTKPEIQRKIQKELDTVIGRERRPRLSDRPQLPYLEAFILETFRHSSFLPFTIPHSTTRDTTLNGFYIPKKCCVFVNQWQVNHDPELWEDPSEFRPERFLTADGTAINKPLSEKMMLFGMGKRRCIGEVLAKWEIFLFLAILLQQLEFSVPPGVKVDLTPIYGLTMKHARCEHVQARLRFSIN

[22] = biological target: Cytochrome P450 3A4 (Homo sapiens, UniProt P08684); assay: Inhibition of human CYP3A4 using midazolam as substrate prewarmed for 10 mins followed by NADPH addition and measured after 10 mins by LC-MS/MS analysis; type: ADME
Sequence of Cytochrome P450 3A4 (P08684 whole entry): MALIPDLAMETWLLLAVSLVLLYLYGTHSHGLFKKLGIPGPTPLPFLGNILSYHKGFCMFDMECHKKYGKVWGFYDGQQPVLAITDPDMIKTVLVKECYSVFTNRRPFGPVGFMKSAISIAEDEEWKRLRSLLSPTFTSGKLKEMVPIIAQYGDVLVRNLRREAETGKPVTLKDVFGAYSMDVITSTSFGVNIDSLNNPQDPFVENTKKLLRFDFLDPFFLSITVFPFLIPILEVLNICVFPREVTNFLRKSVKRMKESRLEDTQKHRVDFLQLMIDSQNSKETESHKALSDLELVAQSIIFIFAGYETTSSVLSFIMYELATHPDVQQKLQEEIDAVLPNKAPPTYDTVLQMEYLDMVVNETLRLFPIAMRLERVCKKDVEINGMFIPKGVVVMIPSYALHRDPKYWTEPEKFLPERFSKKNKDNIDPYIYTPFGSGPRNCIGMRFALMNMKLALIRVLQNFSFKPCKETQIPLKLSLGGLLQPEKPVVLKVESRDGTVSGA

[23] = Metabolic stability in human liver microsomes assessed as half life at 1 uM preincubated for 10 mins followed by NADPH addition and measured upto 60 mins by LC-MS/MS analysis; type: ADME, Microsome; conditions: time < 70 min
[24] = test system: Saccharomyces cerevisiae; assay: Antifungal activity against recombinant Saccharomyces cerevisiae Y525 overexpressing CaMdr1 assessed as inhibition of fungal growth incubated for 48 hrs by microbroth dilution method; type: functional
[25] = test system: Saccharomyces cerevisiae; assay: Antifungal activity against recombinant Saccharomyces cerevisiae Y570 overexpressing CaCdr1 assessed as inhibition of fungal growth incubated for 48 hrs by microbroth dilution method; type: functional
[26] = test system: Saccharomyces cerevisiae; assay: Antifungal activity against recombinant Saccharomyces cerevisiae Y2411 overexpressing ScErg11 assessed as inhibition of fungal growth incubated for 48 hrs by microbroth dilution method; type: functional
[27] = test system: Saccharomyces cerevisiae; assay: Antifungal activity against recombinant Saccharomyces cerevisiae Y2300 overexpressing ScErg11 assessed as inhibition of fungal growth incubated for 48 hrs by microbroth dilution method; type: functional
[28] = test system: Saccharomyces cerevisiae; assay: Antifungal activity against recombinant Saccharomyces cerevisiae Y2513 overexpressing ScErg11 Y140H assessed as inhibition of fungal growth incubated for 48 hrs by microbroth dilution method; type: functional
[29] = test system: Saccharomyces cerevisiae; assay: Antifungal activity against recombinant Saccharomyces cerevisiae Y2462 overexpressing ScErg11 ScNcp1 assessed as inhibition of fungal growth incubated for 48 hrs by microbroth dilution method; type: functional
[30] = test system: Saccharomyces cerevisiae; assay: Antifungal activity against recombinant Saccharomyces cerevisiae Y2459 overexpressing CaErg11 CaCpr assessed as inhibition of fungal growth incubated for 48 hrs by microbroth dilution method; type: functional
[31] = test system: Saccharomyces cerevisiae; assay: Antifungal activity against recombinant Saccharomyces cerevisiae Y2721 overexpressing CpErg11 CpCpr assessed as inhibition of fungal growth incubated for 48 hrs by microbroth dilution method; type: functional
[32] = test system: Saccharomyces cerevisiae; assay: Antifungal activity against recombinant Saccharomyces cerevisiae Y2716 overexpressing CpErg11 Y132F CpCpr assessed as inhibition of fungal growth incubated for 48 hrs by microbroth dilution method; type: functional
[33] = test system: Saccharomyces cerevisiae; assay: Resistance index, ratio of MIC for recombinant Saccharomyces cerevisiae Y525 overexpressing CaMdr1 to MIC for recombinant Saccharomyces cerevisiae Y2411 overexpressing ScErg11; type: functional

Which results are given for `C[C@@H](OCC#Cc1ccc(C#N)cc1)[C@](O)(Cn1cncn1)c1ccc(F)cc1F`?
MIC [1]: 8 µg/mL (≈ 19.6 µM); MIC [2]: 8 µg/mL (≈ 19.6 µM); MIC [3]: ≤ 0.125 µg/mL; MIC [4]: 0.5 µg/mL (≈ 1.22 µM); MIC [5]: 1 µg/mL (≈ 2.45 µM); MIC [6]: 16 µg/mL (≈ 39.2 µM); MIC [7]: 16 µg/mL (≈ 39.2 µM); MIC [8]: 16 µg/mL (≈ 39.2 µM); MIC [9]: 16 µg/mL (≈ 39.2 µM); Activity [10]: Dose-Dependent Effect; inhibition at 0.0625 µg/mL [11]: 100%; inhibition at 64 µg/mL [12]: 43.9%; Activity [13]: 55.46%; Activity [14]: Dose-Dependent Effect; viability at 24 h [15]: > 80%; viability at 24 h, 128 ug/ml [16]: 34.9%; IC50 at 24 h [17]: 88.5 µg/mL (≈ 217 µM); selectivity ratio [18]: > 500; selectivity ratio [19]: > 500; hemolysis at 1 h, 64 ug/ml [20]: 1.22%; IC50 [21]: 42.6 µM; IC50 [22]: 0.607 µM; half-life at 1 µM [23]: 54.5 min; MIC [24]: 0.25 µg/mL; MIC [25]: 16 µg/mL; MIC [26]: 0.008 µg/mL; MIC [27]: 0.031 µg/mL; MIC [28]: 0.016 µg/mL; MIC [29]: 0.031 µg/mL; MIC [30]: 0.016 µg/mL; MIC [31]: 0.063 µg/mL; MIC [32]: 0.063 µg/mL; Ratio [33]: >=16

Which results are given for `C[C@@H](OCC#Cc1ccc(F)cc1F)[C@](O)(Cn1cncn1)c1ccc(F)cc1F`?
MIC [1]: 8 µg/mL (≈ 19.1 µM); MIC [2]: 4 µg/mL (≈ 9.54 µM); MIC [3]: 32 µg/mL (≈ 76.3 µM); MIC [4]: 0.5 µg/mL (≈ 1.19 µM); MIC [5]: 4 µg/mL (≈ 9.54 µM); MIC [6]: 32 µg/mL (≈ 76.3 µM); MIC [7]: 16 µg/mL (≈ 38.2 µM); MIC [8]: 32 µg/mL (≈ 76.3 µM); MIC [9]: 16 µg/mL (≈ 38.2 µM); Activity [10]: Dose-Dependent Effect; inhibition at 0.0625 µg/mL [11]: 100%; inhibition at 64 µg/mL [12]: 37%; Activity [13]: 51.39%; Activity [14]: Dose-Dependent Effect; viability at 24 h [15]: > 80%; viability at 24 h, 128 ug/ml [16]: 36%; IC50 at 24 h [17]: 76.4 µg/mL (≈ 182 µM); selectivity ratio [18]: > 500; selectivity ratio [19]: > 500; hemolysis at 1 h, 64 ug/ml [20]: 1.32%; IC50 [21]: 50.7 µM; IC50 [22]: 0.566 µM; half-life at 1 µM [23]: 50.8 min; MIC [24]: 0.25 µg/mL; MIC [25]: 32 µg/mL; MIC [26]: 0.008 µg/mL; MIC [27]: 0.063 µg/mL; MIC [28]: 0.031 µg/mL; MIC [29]: 0.063 µg/mL; MIC [30]: 0.016 µg/mL; MIC [31]: 0.063 µg/mL; MIC [32]: 0.063 µg/mL; Ratio [33]: >=16

With `C[C@@H](OCC#Cc1ccncc1)[C@](O)(Cn1cncn1)c1ccc(F)cc1F` as the compound, how does the MIC [1] read?
The MIC was 32 µg/mL (≈ 83.2 µM).

And the MIC [2]?
Its MIC is 4 µg/mL (≈ 10.4 µM).

And the MIC [3]?
Its MIC is 32 µg/mL (≈ 83.2 µM).

What about the MIC [4] of the same compound?
The MIC was ≤ 0.125 µg/mL.

What about the MIC [5] of the same compound?
Its MIC is 4 µg/mL (≈ 10.4 µM).

What about the MIC [6] of the same compound?
The MIC was 32 µg/mL (≈ 83.2 µM).

What about the MIC [7] of the same compound?
Its MIC is 32 µg/mL (≈ 83.2 µM).

And the MIC [8]?
Its MIC is 32 µg/mL (≈ 83.2 µM).

And the MIC [9]?
Its MIC is 16 µg/mL (≈ 41.6 µM).

What about the Activity [10] of the same compound?
Its Activity is “Dose-Dependent Effect”.

What about the inhibition at 0.0625 µg/mL [11] of the same compound?
Its inhibition at 0.0625 µg/mL is 100%.

And the inhibition at 64 µg/mL [12]?
The inhibition at 64 µg/mL was 43.4%.

And the Activity [13]?
Its Activity is 50.31%.

What about the Activity [14] of the same compound?
The Activity was “Dose-Dependent Effect”.

What about the viability at 24 h [15] of the same compound?
Its viability at 24 h is > 80%.

And the viability at 24 h, 128 ug/ml [16]?
Its viability at 24 h, 128 ug/ml is 28.7%.

What about the IC50 at 24 h [17] of the same compound?
Its IC50 at 24 h is 64.9 µg/mL (≈ 169 µM).

And the selectivity ratio [18]?
Its selectivity ratio is > 500.

What about the selectivity ratio [19] of the same compound?
Its selectivity ratio is > 500.

And the hemolysis at 1 h, 64 ug/ml [20]?
The hemolysis at 1 h, 64 ug/ml was 1.36%.

What about the IC50 [21] of the same compound?
The IC50 was 31.1 µM.

What about the IC50 [22] of the same compound?
Its IC50 is 0.309 µM.

What about the half-life at 1 µM [23] of the same compound?
Its half-life at 1 µM is 7.35 min.

What about the MIC [24] of the same compound?
The MIC was 0.25 µg/mL.

What about the MIC [25] of the same compound?
Its MIC is 4 µg/mL.

And the MIC [26]?
The MIC was 0.008 µg/mL.

What about the MIC [27] of the same compound?
Its MIC is 0.031 µg/mL.

And the MIC [28]?
Its MIC is 0.031 µg/mL.

And the MIC [29]?
The MIC was 0.063 µg/mL.

And the MIC [30]?
Its MIC is 0.016 µg/mL.

What about the MIC [31] of the same compound?
The MIC was 0.063 µg/mL.

What about the MIC [32] of the same compound?
The MIC was 0.063 µg/mL.

And the Ratio [33]?
Its Ratio is “>=16”.
